Assay results reported in the supplement of paper PMC10307832.

What was measured:
Assay in all cases: relative viability (nuclei count vs DMSO), 5 days (fraction); higher = more cells survive
FG-4592 + OSI-027 = compound: Cc1nc(C(=O)NCC(=O)O)c(O)c2ccc(Oc3ccccc3)cc12 [FG-4592] + COc1cccc2cc(-c3nc([C@H]4CC[C@H](C(=O)O)CC4)n4ncnc(N)c34)[nH]c12 [OSI-027] (partner 0.5 µM)
Method in brief: (§1)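 Dosing by pin tool came one day after lung cancer cell lines were seeded in 1536-well plates, using either one drug or a fixed anchor-drug dose plus five library-drug doses (not always all listed) in √10 steps. After 5 days, nuclei were counted on 4× images. Relative viability is treated-well nuclei count divided by vehicle-well nuclei count, and values are medians of duplicate plates.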

FG-4592 + Linsitinib = compound: Cc1nc(C(=O)NCC(=O)O)c(O)c2ccc(Oc3ccccc3)cc12 [FG-4592] + C[C@]1(O)C[C@@H](c2nc(-c3ccc4ccc(-c5ccccc5)nc4c3)c3c(N)nccn32)C1 [Linsitinib] (partner 1 µM)
Method in brief: as §1

FG-4592 + Alpelisib = compound: Cc1nc(C(=O)NCC(=O)O)c(O)c2ccc(Oc3ccccc3)cc12 [FG-4592] + Cc1nc(NC(=O)N2CCC[C@H]2C(N)=O)sc1-c1ccnc(C(C)(C)C(F)(F)F)c1 [Alpelisib] (partner 2 µM)
Method in brief: as §1

FG-4592 + Vorinostat = compound: Cc1nc(C(=O)NCC(=O)O)c(O)c2ccc(Oc3ccccc3)cc12 [FG-4592] + O=C(CCCCCCC(=O)Nc1ccccc1)NO [Vorinostat] (partner 1 µM)
Method in brief: as §1

Row | Cell Line | relative viability (FG-4592 + OSI-027; first compound 0.08 µM) | relative viability (FG-4592 + OSI-027; first compound 0.253 µM) | relative viability (FG-4592 + OSI-027; first compound 0.8 µM) | relative viability (FG-4592 + OSI-027; first compound 2.53 µM) | relative viability (FG-4592 + OSI-027; first compound 8 µM) | relative viability (FG-4592 + Linsitinib; first compound 0.08 µM) | relative viability (FG-4592 + Linsitinib; first compound 0.253 µM) | relative viability (FG-4592 + Linsitinib; first compound 0.8 µM) | relative viability (FG-4592 + Linsitinib; first compound 2.53 µM) | relative viability (FG-4592 + Linsitinib; first compound 8 µM) | relative viability (FG-4592 + Alpelisib; first compound 0.08 µM) | relative viability (FG-4592 + Alpelisib; first compound 0.253 µM) | relative viability (FG-4592 + Alpelisib; first compound 0.8 µM) | relative viability (FG-4592 + Alpelisib; first compound 2.53 µM) | relative viability (FG-4592 + Alpelisib; first compound 8 µM) | relative viability (FG-4592 + Vorinostat; first compound 0.08 µM) | relative viability (FG-4592 + Vorinostat; first compound 0.253 µM) | relative viability (FG-4592 + Vorinostat; first compound 0.8 µM) | relative viability (FG-4592 + Vorinostat; first compound 8 µM) | relative viability (FG-4592 + Vorinostat; first compound 2.53 µM)
1 | NCI-H2087 | 0.559 | 0.538 | 0.669 | 0.473 | 0.486 | 0.865 | 0.713 | 1.13 | 0.878 | 1.14 | 1.11 | 0.956 | 1.11 | 1.05 | 1.03 | 0.695 | 0.453 | 0.565 | 0.869 | 
2 | NCI-H1437 | 0.907 | 0.812 | 0.862 | 0.667 | 0.506 | 0.995 | 0.976 | 0.99 | 0.95 | 0.786 | 0.997 | 0.958 | 1.01 | 1.05 | 0.706 | 0.751 | 0.786 | 0.912 | 0.722 | 0.894
3 | NCI-H650 | 0.492 | 0.457 | 0.433 | 0.45 | 0.407 | 0.884 | 0.704 | 0.669 | 0.724 | 0.631 | 1.03 | 1.01 | 1.04 | 0.939 | 0.881 | 0.352 | 0.574 | 0.384 | 0.365 | 0.339
4 | COR-L23 | 0.798 | 0.617 | 0.793 | 0.701 | 0.468 | 0.832 | 0.746 | 0.915 | 0.913 | 0.912 | 0.751 | 0.653 | 0.918 | 0.768 | 0.783 | 0.414 | 0.373 | 0.427 | 0.457 | 0.337
5 | COR-L 105 | 0.555 | 0.602 | 0.767 | 0.551 | 0.435 | 0.897 | 0.738 | 1.12 | 1.08 | 0.997 | 1.07 | 0.91 | 0.981 | 0.732 | 1.02 | 0.723 | 0.755 | 0.843 | 0.769 | 0.699
6 | LK-2 | 0.185 | 0.19 | 0.223 | 0.185 | 0.174 | 0.434 | 0.615 | 0.383 | 0.662 | 0.424 |  | 1.05 |  | 0.929 | 1.03 | 0.299 | 0.245 | 0.228 | 0.214 | 0.208
7 | 201T | 0.683 | 0.662 | 0.738 | 0.815 | 0.704 | 0.943 | 0.963 | 0.897 | 1.08 | 1.02 | 0.96 | 0.96 | 0.879 | 1.02 | 1.03 | 0.905 | 0.933 | 0.807 | 0.993 | 0.972
8 | HCC-44 | 0.504 | 0.489 |  | 0.476 | 0.377 | 0.671 | 0.603 | 0.569 | 0.732 | 0.661 | 0.767 | 0.786 | 0.876 | 0.936 | 0.797 | 1.03 | 1.05 | 1.2 | 1.11 | 1.16
9 | NCI-H596 | 0.595 | 0.634 | 0.513 | 0.431 | 0.434 | 1.28 | 1.01 |  | 1.04 | 0.983 | 0.418 | 0.482 |  | 0.499 | 0.527 | 0.441 | 0.507 |  | 0.584 | 0.637
10 | H3255 | 0.573 | 0.576 | 0.626 | 0.617 | 0.62 | 0.963 | 0.868 | 0.896 | 1.07 | 0.959 | 0.634 | 0.664 | 0.67 | 0.791 | 0.81 | 0.89 | 0.684 | 0.721 | 0.84 | 0.693
11 | NCI-H647 | 0.547 | 0.675 | 0.686 | 0.565 | 0.602 | 1.18 | 1.1 | 1.3 | 1.32 | 1.16 | 1.24 | 1.07 | 1.17 | 1.24 | 0.796 | 0.35 | 0.366 | 0.551 | 0.237 | 0.486
12 | NCI-H2023 | 0.402 | 0.359 | 0.428 | 0.356 | 0.241 | 0.611 | 0.575 | 0.646 | 0.77 | 0.685 | 0.683 | 0.569 | 0.722 | 0.631 | 0.534 | 0.631 | 0.514 | 0.572 | 0.543 | 0.553
13 | NCI-H23 | 0.612 | 0.517 | 0.488 | 0.325 | 0.439 | 0.611 | 0.501 | 0.635 | 0.496 | 0.463 | 0.663 | 0.678 | 0.772 | 0.679 | 0.673 | 0.484 | 0.451 | 0.415 | 0.634 | 0.507
14 | NCI-H1944 | 0.401 | 0.367 | 0.412 | 0.325 | 0.364 | 1.15 | 1.16 | 1.01 | 1.2 | 1.04 | 0.794 | 0.801 | 0.692 | 0.853 | 0.836 | 0.479 | 0.571 | 0.461 | 0.561 | 0.512
15 | NCI-H1793 | 0.223 | 0.229 |  | 0.178 | 0.254 | 0.732 | 0.78 |  | 1.01 | 0.856 | 0.772 | 0.678 |  | 0.719 | 0.557 |  | 0.677 |  | 0.678 | 0.638
16 | NCI-H520 | 0.234 | 0.285 | 0.286 | 0.257 | 0.205 | 0.85 | 0.895 | 1.04 | 0.953 | 0.764 | 0.908 | 0.972 | 0.952 | 0.93 | 0.74 | 0.693 | 0.709 | 0.635 | 0.673 | 0.702
17 | NCI-H460 | 0.757 | 0.641 | 0.721 | 0.554 | 0.614 | 0.708 | 0.665 | 0.788 | 0.766 | 0.748 | 0.549 | 0.46 | 0.571 | 0.517 | 0.444 | 0.707 | 0.691 | 0.771 | 0.755 | 0.748
18 | EKVX | 0.626 | 0.649 | 0.718 | 0.663 | 0.73 | 1.01 | 0.916 | 0.948 | 0.989 | 0.989 | 0.786 | 0.858 | 0.932 | 0.79 | 0.932 | 0.869 | 0.619 | 0.64 | 0.784 | 0.706
19 | NCI-H358 | 0.695 | 0.664 | 0.83 | 0.702 | 0.572 | 0.723 | 0.679 | 0.73 | 0.681 | 0.605 | 0.864 | 0.686 | 0.952 | 0.865 | 0.717 | 0.61 | 0.567 | 0.745 | 0.716 | 0.88
20 | EPLC-272H | 0.348 | 0.206 | 0.285 | 0.29 | 0.232 | 1.09 | 1.06 | 0.859 | 1.18 | 1.03 | 0.834 | 0.799 | 0.643 | 0.946 | 0.887 | 0.41 | 0.487 | 0.41 | 0.472 | 0.559
21 | NCI-H1395 | 0.593 | 0.644 | 0.56 | 0.612 | 0.549 | 1.06 | 0.949 |  | 1.05 | 0.824 | 0.973 | 0.914 |  | 0.896 | 0.693 | 0.729 | 0.771 | 0.493 | 0.623 | 0.675
22 | NCI-H2126 | 0.806 | 0.627 | 0.663 | 0.623 | 0.67 | 0.68 | 0.73 | 0.593 | 0.699 | 0.655 | 0.744 | 0.787 | 0.661 | 0.769 | 0.69 | 0.709 | 0.726 | 0.594 | 0.73 | 0.509
23 | LXF-289 | 0.659 | 0.717 | 0.755 | 0.709 | 0.821 | 0.972 | 0.947 | 1.02 | 0.968 | 1.02 | 0.974 | 0.963 | 1.06 | 1.05 | 1.09 | 0.776 | 0.742 | 0.857 | 0.797 | 0.736
24 | NCI-H2009 | 0.591 | 0.565 | 0.621 | 0.476 | 0.605 | 1.19 | 1.08 | 1.28 | 1.21 | 1.19 | 1.18 | 1.06 | 1.19 | 1.15 | 1.22 | 0.823 | 0.694 | 0.88 | 0.727 | 0.671
25 | NCI-H2405 | 0.506 |  | 0.586 | 0.518 | 0.628 |  | 0.583 | 0.884 | 0.801 | 0.72 |  | 0.399 | 0.655 | 0.638 | 0.715 | 0.767 | 0.906 | 0.92 | 0.961 | 0.942
26 | NCI-H1755 | 0.661 | 0.649 | 0.727 | 0.737 | 0.693 | 0.993 | 0.961 | 0.963 | 1.04 | 1.06 | 0.906 | 0.888 | 0.906 | 0.945 | 0.878 | 0.694 | 0.761 | 0.472 | 0.747 | 0.69
27 | HCC-78 | 0.346 | 0.307 | 0.406 | 0.357 | 0.362 | 0.599 | 0.476 | 0.374 | 0.494 | 0.506 | 0.379 | 0.339 | 0.223 | 0.287 | 0.308 | 0.488 |  | 0.434 | 0.523 | 0.376
